{"source": "patent US12117387B2", "about": "“Biosensor, method for manufacturing the same, and analysis method using the same” (AJOU UNIVERSITY INDUSTRY-ACADEMIC COOPERATION FOUNDATION, priority 2020, dated 2024)", "system": "RAW264.7 cell line", "assay": "Boyden chamber (transwell) macrophage migration versus chemoattractant concentration, retroreflection-based cytometry", "format": "cell-based, rat", "settings": "24 hours migration", "experimental": "Experimental Example 3 was conducted to verify that the RAW264.7 cell line cultured in the transwell (the first chamber) coated with the retroreflective particles migrated under influence of monocytechemoattractant protein-1 (MCP-1) as the chemoattractant present in the lower chamber (second chamber), and migrated to the bottom substate of the well plate (the second chamber). In this example, DMEM (Dulbeccos Modified Eagles Medium) was used as the serum-free culture medium in the upper chamber. The culture medium in the lower chamber was composed of 1 ng/ml MCP-1, 10% Fetal Bovine Serum (FBS), and 1% Penicillin streptomycin (PS) based on DMEM (Dulbeccos Modified Eagles Medium). After the first chamber and the second chamber were combined with each other, the cell migration time was specified for 24 hours to observe the cell migration, and the cell migration was observed while culturing the cells in a cell incubator.\nIn Experimental Example 4, an experiment was conducted to verify whether the novel developed retroreflection-based cytometry can be used for an evaluation of cell migration dependence on the concentration of the chemoattractant as used in general cell migration analysis. The MCP-1 introduced into the well plate (the second chamber) was added into the culture medium at a concentration of each of 0, 1, 10, and 100 ng/ml. […]", "data": [{"substance": "monocytechemoattractant protein-1 [MCP-1]", "values": [{"measurement": "number of migrated cells", "setting": "100 ng/ml MCP-1 compared to each of 1 and 10 ng/ml", "value": "reduced"}, {"measurement": "number of migrated cells", "setting": "MCP-1 concentration increased from 0 to 10 ng/ml", "value": "increased"}]}]}
